One assay relates to pea mutant rms1. Put plainly: Inhibition of branching in the pea, application directly on the axillary bud. The following applies: for bud growth inhibition (length of bud/branch at node 3, 8 days after treatment at node 3): Experiment 3, FIG. 5. The assay is classed as in vivo, Pisum sativum L. On the procedure:
Generally, in the pea, the first two scales are considered to be the first two nodes, the cotyledonary node being node 0.
The rms1 mutant is an “SMS” signal biosynthesis mutant, repressing branching of the plant.
Tests for activity on the inhibition of branching were carried out in the following way.
The strigolactone-deficient rms1 (ccd8) pea mutants described in Beveridge et al., 1997, were used for the test (M3T884 line derived from the Térèse variety).
The activity of the compounds (IIa), (II′d) and (II′e) in accordance with the invention and of the comparative compound GR24 was evaluated at respective doses of 10 nM, 100 nM and 1 μM, by treatment at node 3. […]
24 plants were sown per treatment. 8 days after sowing, the treatment was carried out on the axillary bud at node 3, by application of 10 μl of each solution to be tested, directly on the bud, by means of a micropipette. The lateral outgrowths at nodes 1 and 2 were removed in order to encourage the growth of the axillary buds at the higher nodes. […]
The activity of the compounds (IIa), (IIb), (IIc), (II′d), (II′e) and (II′f) in accordance with the invention was evaluated at respective doses of 100 nM and 1 μM, by treatment at node 3.
For this, solutions containing each compound to be tested, in 1% acetone, 4% propylene glycol 1450 and 50% ethanol, were used.
The activity of the compounds (IIa), (IIIa), (IIIb) and (IIIc) in accordance with the invention, and also of GR24 as comparative compound, was evaluated at respective doses of 100 nM and 1 μM, by treatment at node 3, according to the protocol described above with reference to experiment 2.
A sample consisting only of the solvent, and without active compound, was also tested as negative control, termed “CTL 0”.
In this experiment, the activity of the compound (IIIa) in accordance with the invention, and also of GR24 as comparative compound, was evaluated at respective doses of 1 nM, 10 nM, 100 nM and 1 μM, by treatment at node 3, according to the protocol described above with reference to experiment 2, for doses of 10 nM, 100 nM and 1 μM of compounds.
A sample consisting only of the solvent, and without active compound (“CTL 0”) was also tested as a negative control. A nontreated (“NT”) control was also carried out.
A dose-response test for evaluating the activity of the compounds by deposition at node 3 was carried out according to the protocol described above with reference to experiment 2, for the compound in accordance with the invention (IIa) and for the comparative compounds GR24, Comp. 3 and Comp. 4. Concentrations of 10 nM, 100 nM and 1 μM were tested.
A sample consisting only of the solvent, and without active compound (“CTL 0”), was also tested as a negative control. A nontreated (“NT”) control was also carried out.
A dose-response test for evaluating the activity of the compounds by deposition at node 3 was carried out according to the protocol described above with reference to experiment 2, for the compound in accordance with the invention (IIa) and for the comparative compounds GR24, Comp. 5 and Comp. 6. Concentrations of 10 nM and 100 nM were tested. […]
The sprouting of the axillary buds at node 4 was measured 8 days after the treatment by means of a digital sliding caliper.
The activity of the compound (IIIa) in accordance with the invention on bud growth at node 3 was evaluated at a dose of 1000 nM by treatment at node 3. The GR24 compound was tested at the same concentration as comparative compound. […]

The next assay deals with pea rms1 mutants. Put plainly: Hydroponic culture test in pea. In kind it is in vivo, Pisum sativum L. The conditions noted are these: 3 μM in hydroponic culture solution, 8 days. Here is the method: For this example, ramosus (rms1) hyperbranched pea (Pisum sativum L.) mutants were used.
More particularly, rms1 (rms1-10) hyperbranched mutant plants were used. The nutritive solution (100%) was prepared by adding the following macronutrients to 1000 l of water: HNO3 (0.28 l), (NH4)2HPO4 (120 g), Ca(NO3)2 (40 g), Mg(NO3)2 (140 g), KNO3 (550 g), (NH4)2MoO4 (0.05 g), H3BO3 (15 g), MnSO4.H2O (2 g), ZnSO4.7H2O (1 g), CuSO4.5H2O (0.25 g), Sequestrene® (10 g) (Fe-EDTA solution). The pea seeds were germinated in moist sand for 6 days, then placed in holes of a lid (35 holes/lid, 20 mm in diameter) of an opaque PVC pot containing the hydroponic culture solution (47 l, pH 5.8).
In a first experiment, acetone or the compound to be tested (dissolved in acetone) was added to the hydroponic culture solution so as to obtain a final concentration of 0 or 1 μM of compound to be tested and 0.01% of acetone.
The hydroponic culture solution was continually aerated by means of an aquarium pump and replaced each week. 8 days after the start of the treatment, the lengths of bud/branch (nodes 1 to 6) were measured with an electronic sliding caliper.
This experiment was carried out for the compounds according to the invention (IIa) and (IIIb), and also the GR24 compound as comparative compound. A negative control (<<CTL 0>>), corresponding to a treatment with the solvent alone, was also carried out.
The results (mean data on 20 plants), in terms of, on the one hand, length of the branches at nodes 3 to 5 and, on the other hand, plant height, are shown respectively in FIGS. 11 and 12.
The same experiment was carried out for the compound in accordance with the invention (II″g) and the comparative compound GR24. Dimethyl sulfoxide (DMSO) or the compound to be tested, dissolved in DMSO, was added to the hydroponic culture solution so as to obtain a final concentration of 0 or 3 μM of compound to be tested and 0.01% of DMSO.
The results (mean data on 10 to 12 plants), in terms, on the one hand, of length of the branches at nodes 3 to 4 and, on the other hand, of plant height, are shown respectively in FIGS. 13 and 14.

For a further assay, the system named is MRC5 cells. Put plainly: In vitro cytotoxicity study on MRC5 cells (MTS). The following applies: Homo sapiens, MRC5, 72 hours, ± standard error, read-out: Percentage inhibition of MRC5 cell growth. The assay is classed as cell-based, human. Here is the method: The cytotoxicity of the compound (IIa) according to the invention, and that of GR24 and of GR5 as comparative compounds, was evaluated in vitro, at concentrations of 10^−4 M and 10^−5 M, on MRC5 cells, in DMSO, in the following way.
MRC5 cells (human lung (fibroblasts) were cultured in Dulbecco's modified Eagle medium (DMEM) supplemented with: 25 mM of glucose, 10% (v/v) of fetal calf serum, 100 IU of penicillin, 100 μg/ml of streptomycin and 1.5 μg/ml of fungizone, and kept under 5% of CO2 at 37° C.
96-well plates were seeded with 2100 MRC5 cells per well in 200 μl of medium. After 24 hours, each of the compounds dissolved in DMSO was added for 72 hours, at a final concentration of 10^−4 M or 10^−5 M in a fixed volume of DMSO. The controls received an equal volume of DMSO.
The viable cell number was measured at 490 nm with the MTS reagent (Promega), and, for each compound, the concentration causing 50% inhibition of cell growth, IC50, was calculated.

Setting [1] is: Experiment 2, FIG. 4, 100 nM and 1 μM.
Setting [2] is: Experiment 1, FIG. 3, concentration of 1 μM.

Take `CC1=C(C)C(Sc2ccc(Br)cc2)OC1=O` (centres unmarked): in the assay with pea mutant rms1 (setting [1]), the “inhibitory activity on bud growth (length of bud/branch at node 3, 8 days after treatment at node 3)” value is “most active”. Regarding `CC(C=O)=COC1OC(=O)C(C)=C1C` (centres unmarked) [Compound (IIIa), 3-((3,4-dimethyl-5-oxo-2,5-dihydrofuran-2-yl)oxy)-2-methylacrylaldehyde], the “bud growth inhibition (length of bud/branch at node 3, 8 days after treatment at node 3)” value in the assay on pea mutant rms1 (100 nM and 1 μM) is on record as “slightly less active, exhibit, however, a high activity in terms of bud growth inhibition”. Moreover, in the assay with pea mutant rms1 (Experiment 8, FIG. 10, 1000 nM), the “inhibitory activity on bud growth at node 3 (length of bud/branch 8 days after treatment at node 3)” value is on record as “although less than that of GR24, is highly significant”. For `C=C/C(C)=C/OC1OC(=O)C(C)=C1C` (centres unmarked) [Compound (IIIc), (E)-3,4-dimethyl-5-((2-methylbuta-1,3-dien-1-yl)oxy)furan-2(5H)-one], the “bud growth inhibition (length of bud/branch at node 3, 8 days after treatment at node 3)” value in the assay on pea mutant rms1 (100 nM and 1 μM) is reported as “slightly less active, exhibit, however, a high activity in terms of bud growth inhibition”. Take `CC1=C(C)C(Sc2ccc(C(F)(F)F)cc2)OC1=O` (centres unmarked) [Compound (IIc), 3,4-dimethyl-5-((4-(trifluoromethyl)phenyl)thio)furan-2(5H)-one]: in the assay with pea mutant rms1 (setting [1]), the “inhibitory activity on bud growth (length of bud/branch at node 3, 8 days after treatment at node 3)” value is on record as “most active”. `CC1=C(C)C(Oc2ccc(Cl)cc2)OC1=O` (centres unmarked) [Compound (II′d), 5-(4-chlorophenoxy)-3,4-dimethylfuran-2(5H)-one]: in the assay with pea mutant rms1 (setting [2]), the “inhibitory activity on bud growth (length of bud/branch at node 3, 8 days after treatment at node 3)” value is listed as “exhibit an inhibitory activity on bud growth at node 3”. Same read-out and setting: then `CC1=C(C)C(Oc2ccc(Br)cc2)OC1=O` (centres unmarked) [Compound (II′e), 5-(4-bromophenoxy)-3,4-dimethylfuran-2(5H)-one], with “exhibit an inhibitory activity on bud growth at node 3”.

As for `CC1=C(C)C(Oc2ccc3ccc(=O)oc3c2)OC1=O` (centres unmarked) [Compound (II″g), 7-[3,4-dimethylfuran-2(5H)-one]oxycoumarin], in the assay with pea rms1 mutants (FIG. 13), the “length of the branches at nodes 3 to 4” value is “an activity on all the branches of nodes 3 to 4, and also an effect on plant height, which are both greater than those of the comparative compound GR24”. In addition, in the assay on pea rms1 mutants (FIG. 14), the plant height result is recorded as “an effect on plant height, which are both greater than those of the comparative compound GR24”. For the molecule `CC1=CC(O/C=C2\CCOC2=O)OC1=O` (centres unmarked) [GR5], the inhibition at 100 µM in the assay on MRC5 cells (10^−4M) turned out to be 66 ± 1%. In the assay with MRC5 cells (10^−5M), the inhibition at 10 µM is 0%.

The record behind these values is patent US9532569B2 (INSTITUT NATIONAL DE LA RECHERCHE AGRONOMIQUE, priority 2012, dated 2017).
